Assay results as given in article PMC5333544, “Purification and biochemical characterization of recombinant Persicaria minor β-sesquiphellandrene synthase” (PeerJ, 2017).

What was measured:
[1] = molecular target: T1, PmSTS_Δ24 (Persicaria minor, UniProt I6XZ73); assay: malachite green phosphate assay coupled to inorganic diphosphatase; format: biochemical; settings: 20 mM HEPES pH 8.0, 10 mM MgCl2, 30 °C, 0.1 µM enzyme, 2–30 µM FPP; read-out: Km app
T1 construct: N-terminal 24 residues removed from the 562-residue protein; N-terminal His6 tag (pET28b), no cleavage told; E. coli BL21 (DE3); PCR primer codes for Met-AGFKPS start; monomer stated for the full-length enzyme
T1 sequence (I6XZ73 entry or part of it, stated change not applied): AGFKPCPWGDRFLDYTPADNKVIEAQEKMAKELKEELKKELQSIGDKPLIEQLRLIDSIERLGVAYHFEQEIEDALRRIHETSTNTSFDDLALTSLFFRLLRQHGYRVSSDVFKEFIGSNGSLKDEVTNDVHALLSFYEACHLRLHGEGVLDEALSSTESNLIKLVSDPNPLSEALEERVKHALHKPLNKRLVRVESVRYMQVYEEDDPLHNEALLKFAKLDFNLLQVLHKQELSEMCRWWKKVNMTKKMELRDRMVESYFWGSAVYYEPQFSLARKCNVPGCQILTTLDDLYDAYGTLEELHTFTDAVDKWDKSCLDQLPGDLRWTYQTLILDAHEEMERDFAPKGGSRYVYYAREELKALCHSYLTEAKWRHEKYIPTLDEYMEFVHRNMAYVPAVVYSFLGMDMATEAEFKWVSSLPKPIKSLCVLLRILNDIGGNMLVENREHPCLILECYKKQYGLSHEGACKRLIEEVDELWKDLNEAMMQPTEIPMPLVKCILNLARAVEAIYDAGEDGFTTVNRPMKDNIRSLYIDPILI

[2] = molecular target: T2, PmSTS_Δ24 (Persicaria minor, UniProt I6XZ73, K266E, form not given); assay: GC-MS product analysis after hexane extraction; format: biochemical; settings: overnight incubation; product beta-sesquiphellandrene
T2 construct: N-terminal 24 residues removed from the 562-residue protein; N-terminal His6 tag (pET28b), no cleavage told; E. coli BL21 (DE3); PCR primer codes for Met-AGFKPS start; monomer stated for the full-length enzyme
T2 sequence (I6XZ73 entry or part of it K266E, form open): as the sequence (I6XZ73 entry or part of it, stated change not applied) above, with K242E counted along it

| SMILES | Km [1] | GC-MS product analysis after hexane extraction [2] |
| --- | --- | --- |
| CC(C)=CCC/C(C)=C/CC/C(C)=C/CO[P@@](=O)(O)OP(=O)(O)O (stereo in doubt) [farnesyl diphosphate] | 10.2 µM |  |
| CC(C)=CCC/C(C)=C/CC/C(C)=C/COP(=O)(O)OP(=O)(O)O [farnesyl diphosphate] |  | mutant protein K266E produced using an E. coli expression system displayed a product profile |
